Assay results taken from patent publication US4868181A, “1,4-dihydropyridine derivatives with calcium agonist and alpha1 -antagonist activity” (E. I. Du Pont de Nemours and Company, priority 1987, dated 1989).

How the values were obtained:
alpha1 -adrenoceptors = experiment: [^3 H]-prazosin binding assay (affinity for alpha1-adrenoceptors); settings: rat brain membranes, 0.2 nM [^3 H]-prazosin, 60 minutes at 25°
Method: The [^3 H]-prazosin binding assay was carried out according to the method described by Timmermans, P. B. M. W. M., Schoop, A. M. C., and Van Zwieten, P. A.: Biochem Pharmacol., 31, 899-905, 1982 (1). The reaction mixture contained partially purified rat brain membranes (source of alpha1 -adrenoceptors), 0.2 nM [^3 H]-prazosin with or without potential displacer in Tris buffer. The mixture was incubated for 60 minutes at 25° and subsequently terminated by rapid filtration through glass fiber-filter. Receptor-bound [^3 H]-prazosin trapped in the filter was quantitated by scintillation counting. The inhibitory concentration (IC50) of potential displacer which gives 50% displacement of the total specifically bound [^3 H]-prazosin is presented as a measure of the affinity of such compound for the alpha1 -adrenoceptor.

guinea pig left atria = experiment: Positive inotropic effect in guinea pig left atria; settings: 37°; for EC50: left atria paced at 2Hz, cumulative addition to maximum 10^-4, read-out: EC50 (concentration that increases DT by 50% above the control DT); for Intrinsic Activity (ratio of the maximum effect of the test compound to that of Bay K 8644): relative to Bay K 8644, left atria paced at 2Hz
Method: Guinea pigs are killed by cervical dislocation. The left atria are removed and mounted at 1 gm resting tension in tissue baths containing oxygenated Krebs bicarbonate solution which is kept at 37°. The left atria are electrically paced at 2Hz with square wave pulses of 1 msec duration. The voltage is set at 1.5× threshold level.
After a one hour equilibration period, control values for developed tension (DT, gm) are recorded. Test compounds are then added to the baths, in a cumulative manner to a maximum concentration of 10^-4, to obtain a concentration-response curve. Treatment values of DT are obtained after the rug effect has reached a plateau and the exposure time for each concentration is 5-8 minutes. Percent change of the treatment value from the control value is calculated at each concentration of the test compound.

Ca^2 + channels = target: T1, Ca^2 + channels (Rattus norvegicus, UniProt P22002); experiment: [^3 H]-Nitrendipine binding assay (affinity for calcium channels); settings: rat cardiac microsomes, 0.5 nM [^3 H]-nitrendipine, 60 minutes at 25°
T1 construct: rat cardiac microsomes (source of Ca^2 + channels); from tissue; host or cells: rat cardiac microsomes
T1 sequence (P22002 whole entry, other chains not shown): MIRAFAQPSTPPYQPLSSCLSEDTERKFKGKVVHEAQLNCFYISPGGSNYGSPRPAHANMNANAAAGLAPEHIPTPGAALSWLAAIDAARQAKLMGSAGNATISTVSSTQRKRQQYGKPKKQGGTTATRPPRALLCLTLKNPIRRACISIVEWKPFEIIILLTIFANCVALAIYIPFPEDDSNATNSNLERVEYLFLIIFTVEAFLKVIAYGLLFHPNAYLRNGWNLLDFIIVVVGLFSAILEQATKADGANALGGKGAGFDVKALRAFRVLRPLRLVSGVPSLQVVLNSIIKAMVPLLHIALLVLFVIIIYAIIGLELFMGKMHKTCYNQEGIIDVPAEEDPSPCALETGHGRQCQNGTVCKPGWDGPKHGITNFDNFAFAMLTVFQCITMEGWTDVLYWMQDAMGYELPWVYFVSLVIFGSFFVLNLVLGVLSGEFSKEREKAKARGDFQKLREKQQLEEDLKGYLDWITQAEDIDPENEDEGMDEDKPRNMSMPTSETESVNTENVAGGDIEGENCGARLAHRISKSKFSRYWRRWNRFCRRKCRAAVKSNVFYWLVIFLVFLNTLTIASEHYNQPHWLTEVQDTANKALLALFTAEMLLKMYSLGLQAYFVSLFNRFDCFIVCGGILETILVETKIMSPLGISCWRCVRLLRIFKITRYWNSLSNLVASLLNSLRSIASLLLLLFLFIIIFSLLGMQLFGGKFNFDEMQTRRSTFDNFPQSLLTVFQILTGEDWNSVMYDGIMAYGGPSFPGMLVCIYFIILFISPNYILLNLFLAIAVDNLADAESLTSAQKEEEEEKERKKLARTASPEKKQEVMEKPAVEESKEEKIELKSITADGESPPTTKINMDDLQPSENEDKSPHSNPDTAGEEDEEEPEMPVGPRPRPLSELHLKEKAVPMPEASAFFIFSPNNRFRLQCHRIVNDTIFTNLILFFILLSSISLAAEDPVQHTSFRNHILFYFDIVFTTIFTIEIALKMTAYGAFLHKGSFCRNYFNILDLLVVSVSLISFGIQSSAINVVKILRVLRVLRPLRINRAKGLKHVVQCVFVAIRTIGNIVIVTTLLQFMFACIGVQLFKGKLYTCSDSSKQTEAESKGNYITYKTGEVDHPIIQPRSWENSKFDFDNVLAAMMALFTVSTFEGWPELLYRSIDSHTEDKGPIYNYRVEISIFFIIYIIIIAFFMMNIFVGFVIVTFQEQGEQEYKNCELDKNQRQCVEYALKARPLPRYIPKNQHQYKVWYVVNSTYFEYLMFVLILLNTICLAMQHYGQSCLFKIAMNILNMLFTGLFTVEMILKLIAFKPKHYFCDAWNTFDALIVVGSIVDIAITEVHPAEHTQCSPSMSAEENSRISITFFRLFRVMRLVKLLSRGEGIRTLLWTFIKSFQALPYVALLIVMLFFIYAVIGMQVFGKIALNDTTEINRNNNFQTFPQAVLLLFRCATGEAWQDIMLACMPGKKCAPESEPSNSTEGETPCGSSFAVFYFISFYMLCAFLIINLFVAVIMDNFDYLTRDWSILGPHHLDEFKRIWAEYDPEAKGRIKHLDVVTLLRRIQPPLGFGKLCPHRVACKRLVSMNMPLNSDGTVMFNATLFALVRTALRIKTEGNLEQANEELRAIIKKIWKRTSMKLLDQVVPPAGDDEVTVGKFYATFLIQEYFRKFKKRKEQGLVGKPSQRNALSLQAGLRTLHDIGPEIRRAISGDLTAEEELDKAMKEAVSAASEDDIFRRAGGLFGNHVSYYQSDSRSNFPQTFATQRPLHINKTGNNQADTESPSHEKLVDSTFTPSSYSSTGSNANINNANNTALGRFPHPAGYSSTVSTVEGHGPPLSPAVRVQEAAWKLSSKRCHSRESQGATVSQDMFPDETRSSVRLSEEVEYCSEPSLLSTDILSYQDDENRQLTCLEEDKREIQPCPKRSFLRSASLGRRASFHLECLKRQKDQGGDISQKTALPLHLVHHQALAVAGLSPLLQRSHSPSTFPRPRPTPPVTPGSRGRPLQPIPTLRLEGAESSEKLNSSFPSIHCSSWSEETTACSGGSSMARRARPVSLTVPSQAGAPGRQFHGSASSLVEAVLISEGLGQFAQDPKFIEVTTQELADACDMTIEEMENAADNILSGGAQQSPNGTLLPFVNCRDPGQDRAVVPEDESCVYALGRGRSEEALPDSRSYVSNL
T1 sequence (P54290 25-944 partner limits assumed, other chains not shown): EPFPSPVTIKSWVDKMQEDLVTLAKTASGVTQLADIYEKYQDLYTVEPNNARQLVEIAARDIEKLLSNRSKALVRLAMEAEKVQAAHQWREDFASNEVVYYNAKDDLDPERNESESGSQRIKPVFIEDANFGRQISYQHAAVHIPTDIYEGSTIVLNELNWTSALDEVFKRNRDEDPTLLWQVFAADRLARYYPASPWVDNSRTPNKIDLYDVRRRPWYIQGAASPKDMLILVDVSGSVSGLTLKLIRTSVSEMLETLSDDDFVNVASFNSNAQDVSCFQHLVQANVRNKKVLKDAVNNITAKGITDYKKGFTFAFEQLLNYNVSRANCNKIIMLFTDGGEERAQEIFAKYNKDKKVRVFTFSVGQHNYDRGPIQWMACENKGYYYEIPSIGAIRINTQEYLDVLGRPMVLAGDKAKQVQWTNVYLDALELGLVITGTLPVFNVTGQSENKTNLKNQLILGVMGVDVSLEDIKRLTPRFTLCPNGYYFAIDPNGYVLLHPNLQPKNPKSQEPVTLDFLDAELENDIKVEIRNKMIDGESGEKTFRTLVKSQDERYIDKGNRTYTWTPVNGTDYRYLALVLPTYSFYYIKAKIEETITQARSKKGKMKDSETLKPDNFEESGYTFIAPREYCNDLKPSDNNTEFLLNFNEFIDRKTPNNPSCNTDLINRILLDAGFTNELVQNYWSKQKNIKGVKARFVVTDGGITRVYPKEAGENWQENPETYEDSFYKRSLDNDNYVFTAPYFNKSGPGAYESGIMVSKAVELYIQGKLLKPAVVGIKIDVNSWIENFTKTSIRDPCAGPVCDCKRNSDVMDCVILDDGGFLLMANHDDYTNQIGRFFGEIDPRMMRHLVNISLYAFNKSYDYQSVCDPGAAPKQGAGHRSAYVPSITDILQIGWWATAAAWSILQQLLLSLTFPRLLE
T1 sequence (P54290 945-1091 partner limits assumed, other chains not shown): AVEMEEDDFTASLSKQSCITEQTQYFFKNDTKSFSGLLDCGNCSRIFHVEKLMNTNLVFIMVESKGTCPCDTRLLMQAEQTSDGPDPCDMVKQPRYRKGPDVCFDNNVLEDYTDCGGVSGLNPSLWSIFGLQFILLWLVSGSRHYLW
Method: [^3 H]-Nitrendipine binding assay was carried out according to the method described by G. T. Bolger, et al., Biochem. Biophys. Res. Comm., 104, 1604-1609, 1982 (1). The reaction mixture contained rat cardiac microsomes (source of Ca^2 + channels), 0.5 nM [^3 H]-nitrendipinewith or without potential displacer in Tris buffer. The mixture was incubated for 60 minutes at 25° and subsequently terminated by rapid filtration through a glass fiber-filter. Membrane-bound [^3 H]-nitrendipine trapped in the filter was quantitated by scintillation counting. The inhibitory concentration (IC50) of potential displacer which gives 50% displacement of the total specifically bound [^3 H]-nitrendipine is presented as a measure of the affinity of such compound for the Ca^2 + channel.

Compound | IC50 (alpha1 -adrenoceptors) [nM] | EC50 (guinea pig left atria) [nM] | Intrinsic Activity (ratio of the maximum effect of the test compound to that of Bay K 8644) (guinea pig left atria) [%] | IC50 (Ca^2 + channels) [nM]
COc1ccccc1N1CCN(CCOC(=O)C2=C(C)NC(C)=C([N+](=O)[O-])C2c2cccc(C(F)(F)F)c2)CC1 (stereo not shown) [Example 1, 1,4-Dihydro-2,6-dimethyl-5-nitro-4-[3-(trifluoromethyl)phenyl]-[2-[4-(2-methoxyphenyl)-1-piperazinyl]ethyl]ester-3-pyridinecarboxylic acid] | 960 | 27000 | 30 | 
COc1ccccc1N1CCN(CCOC(=O)C2=C(C)NC(C)=C([N+](=O)[O-])C2c2ccccc2C(F)(F)F)CC1 (stereo not shown) [Example 2, 1,4-Dihydro-2,6-Dimethyl-5-nitro-4-[2-(trifluoromethyl)phenyl]-[2-[4-(2-methoxyphenyl)-1-piperazinyl]ethyl]ester-3-pyridinecarboxylic acid] | 800 | 44 | 145 | 29
COc1ccccc1N1CCN(CCOC(=O)C2=C(C)NC(C)=C([N+](=O)[O-])C2c2ccccc2Cl)CC1 (stereo not shown) [Example 5] | 490 | 560 | 100 | 73
COc1cccc(OC)c1OCCNCCOC(=O)C1=C(C)NC(C)=C([N+](=O)[O-])C1c1ccccc1C(F)(F)F (stereo not shown) [Example 13] | > 10000 | 30000 | 50 | 830
COc1ccccc1N1CCN(CCCCOC(=O)C2=C(C)NC(C)=C([N+](=O)[O-])C2c2ccccc2C(F)(F)F)CC1 (stereo not shown) [Example 56] | 300 | 6000 | 100 | 300
COc1ccccc1N1CCN(CCCCOC(=O)C2=C(C)NC(C)=C([N+](=O)[O-])C2c2cccc(C(F)(F)F)c2)CC1 (stereo not shown) [Example 57] | 970 |  |  | 990
COC(=O)C1=C(C)NC(C)=C([N+](=O)[O-])C1c1ccccc1OCCN1CCN(c2ccccc2OC)CC1 (stereo not shown) [Example 58] | 130 | 1900 | 90 | 850
COC(=O)C1=C(C)NC(C)=C([N+](=O)[O-])C1c1ccccc1OCCCCCN1CCN(c2ccccc2OC)CC1 (stereo not shown) [Example 59, 1,4-dihydro-2,6-dimethyl-4[2-(5-(4-(2-methoxyphenyl)-1-piperazinyl)pentoxyl)-phenyl]-5-nitro-methyl ester-3-pyridinecarboxylic acid] | 130 | 1000 | 35 | 290
COC(=O)C1=C(C)NC(C)=C([N+](=O)[O-])C1c1cc(OCCN2CCN(c3ccccc3OC)CC2)ccc1[N+](=O)[O-] (stereo not shown) [Example 68] | 590 |  |  | 16000
COC(=O)C1=C(C)NC(C)=C([N+](=O)[O-])C1c1ccccc1OCCCN1CCN(c2ccccc2C(F)(F)F)CC1 (stereo not shown) [Example 104] | 8600 |  |  | 200
COc1ccccc1N1CCN(CCCCOc2ccccc2C2C(C(=O)Nc3ccccc3)=C(C)NC(C)=C2[N+](=O)[O-])CC1 (stereo not shown) [Example 115] | 130 |  |  | 110000
COC(=O)C1=C(C)NC(C)=C([N+](=O)[O-])C1c1ccccc1OCCCCN1CCN(c2ccccc2C)CC1 (stereo not shown) [Example 118] | 850 |  |  | 540
COC(=O)C1=C(C)NC(C)=C([N+](=O)[O-])C1c1ccccc1OCC=CCN1CCN(c2ccccc2OC)CC1 (stereo not shown) [Example 119] | 490 |  |  | 800
COC(=O)C1=C(C)NC(C)=C([N+](=O)[O-])C1c1cccc(OC)c1OCC=CCN1CCN(c2ncccn2)CC1 (stereo not shown) [Example 121] | 8200 |  |  | 3000
COc1ccccc1N1CCN(CCCOc2cccc(C3C(C(=O)Nc4ccccc4)=C(C)NC(C)=C3[N+](=O)[O-])c2)CC1 (stereo not shown) [Example 122] | 230 |  |  | > 10000
COC(=O)C1=C(C)NC(C)=C([N+](=O)[O-])C1c1cccc(OCCCN2CCN(c3ncccn3)CC2)c1 (stereo not shown) [Example 124] | 1200 |  |  | 18000
CCOC(=O)C1=C(C)NC(C)=C([N+](=O)[O-])C1c1cccc(OCCCN2CCN(c3ccccn3)CC2)c1 (stereo not shown) [Example 126] | 290 |  |  | 5000
COC(=O)C1=C(C)NC(C)=C([N+](=O)[O-])C1c1cccc(OCC#CCN2CCN(c3ccccc3OC)CC2)c1 (stereo not shown) [Example 127] | 2700 |  |  | 2000
COC(=O)C1=C(C)NC(C)=C([N+](=O)[O-])C1c1cccc(OCCCN2CCN(c3ccccn3)CC2)c1 (stereo not shown) [Example 128] | 100 |  |  | 5700
COC(=O)C1=C(C)NC(C)=C([N+](=O)[O-])C1c1cccc(OCCCN2CCN(c3ccccc3C)CC2)c1 (stereo not shown) [Example 131] | 150 |  |  | 3600

Compound | IC50 (alpha1 -adrenoceptors) [nM] | EC50 (guinea pig left atria) [nM] | Intrinsic Activity (ratio of the maximum effect of the test compound to that of Bay K 8644) (guinea pig left atria) [%] | IC50 (Ca^2 + channels) [nM]
COC(=O)C1=C(C)NC(C)=C([N+](=O)[O-])C1c1cccc(OCCCN2CCN(c3ccccc3Cl)CC2)c1 (stereo not shown) [Example 132] | 130 |  |  | 2300
COc1ccccc1N1CCN(CCCCOc2ccccc2C2C(C(=O)OC(C)C)=C(C)NC(C)=C2[N+](=O)[O-])CC1 (stereo not shown) [Example 133] | 750 |  |  | 420
COc1ccccc1N1CCN(CCCOc2ccccc2C2C(C(=O)OC(C)C)=C(C)NC(C)=C2[N+](=O)[O-])CC1 (stereo not shown) [Example 134] | 340 |  |  | 8400
COC(=O)C1=C(C)NC(C)=C([N+](=O)[O-])C1c1ccc(OCCCN2CCN(c3ccccc3OC)CC2)cc1 (stereo not shown) [Example 135] | 430 |  |  | 6700
COC(=O)C1=C(C)NC(C)=C([N+](=O)[O-])C1c1cccc(OCC2OC2CN2CCN(c3ccccc3OC)CC2)c1 (stereo not shown) [Example 136] | > 10000 |  |  | > 10000
COC(=O)C1=C(C)NC(C)=C([N+](=O)[O-])C1c1ccc(OCCCN2CCN(c3ccccc3OC)CC2)c([N+](=O)[O-])c1 (stereo not shown) [Example 137] | 440 |  |  | 6100
COC(=O)C1=C(C)NC(C)=C([N+](=O)[O-])C1c1cc([N+](=O)[O-])ccc1OCCCCN1CCN(c2ccccc2OC)CC1 (stereo not shown) [Example 138] | 280 |  |  | 220
COC(=O)C1=C(C)NC(C)=C([N+](=O)[O-])C1c1cc(Cl)cc(Cl)c1OCCCCCN1CCN(c2ccccc2OC)CC1 (stereo not shown) [Example 141] | 830 |  |  | 630
COC(=O)C1=C(C)NC(C)=C([N+](=O)[O-])C1c1cc(Cl)ccc1OCCCCN1CCN(c2ccccc2OC)CC1 (stereo not shown) [Example 143] | 350 |  |  | 190
C=CCc1cccc(C2C(C(=O)OC)=C(C)NC(C)=C2[N+](=O)[O-])c1OCCCCN1CCN(c2ccccc2OC)CC1 (stereo not shown) [Example 144] | 310 |  |  | 1300
COC(=O)C1=C(C)NC(C)=C([N+](=O)[O-])C1c1cc(Cl)ccc1OCCCCCN1CCN(c2ccccc2OC)CC1 (stereo not shown) [Example 145] | 630 |  |  | 180
COc1ccccc1N1CCN(CCCCOc2ccccc2C2C(C(=O)OC(C)(C)C)=C(C)NC(C)=C2[N+](=O)[O-])CC1 (stereo not shown) [Example 146] | 990 |  |  | 470
COC(=O)C1=C(C)NC(C)=C([N+](=O)[O-])C1c1cccc(OCCCN2CCN(c3ccccc3OC)CC2)c1[N+](=O)[O-] (stereo not shown) [Example 149] | 290 |  |  | 8900
COC(=O)C1=C(C)NC(C)=C([N+](=O)[O-])C1c1cccc(OCCCCN2CCN(c3ccccc3OC)CC2)c1[N+](=O)[O-] (stereo not shown) [Example 150] | 220 |  |  | 4000
COC(=O)C1=C(C)NC(C)=C([N+](=O)[O-])C1c1cccc(OCCCCCN2CCN(c3ccccc3OC)CC2)c1[N+](=O)[O-] (stereo not shown) [Example 151] | 200 |  |  | 4700
COC(=O)C1=C(C)NC(C)=C([N+](=O)[O-])C1c1cc(OC)ccc1OCCCCN1CCN(c2ccccc2OC)CC1 (stereo not shown) [Example 152] | 270 |  |  | 690
COC(=O)C1=C(C)NC(C)=C([N+](=O)[O-])C1c1cc(OC)ccc1OCCCCCN1CCN(c2ccccc2OC)CC1 (stereo not shown) [Example 153] | 120 |  |  | 880
COC(=O)C1=C(C)NC(C)=C([N+](=O)[O-])C1c1ccccc1OCCN1CCN(c2ncccn2)CC1 (stereo not shown) [Example 154] | 9300 |  |  | 1400
COC(=O)C1=C(C)NC(C)=C([N+](=O)[O-])C1c1ccccc1OCCCCCN1CCN(c2ncccn2)CC1 (stereo not shown) [Example 155] | 2600 |  |  | 250
